Reference: patent publication US8148367B2 (Takeda Pharmaceutical Company Limited, priority 2008, dated 2012)

Molecular target: T1, Recombinant human renin (Homo sapiens, UniProt P00797)
T1 construct: isolate the active form (residues 67-406); made in house; host or cells: FreeStyle 293-F cells, transient expression of pcDNA3.1(+)/hREN
T1 sequence (P00797 67-406): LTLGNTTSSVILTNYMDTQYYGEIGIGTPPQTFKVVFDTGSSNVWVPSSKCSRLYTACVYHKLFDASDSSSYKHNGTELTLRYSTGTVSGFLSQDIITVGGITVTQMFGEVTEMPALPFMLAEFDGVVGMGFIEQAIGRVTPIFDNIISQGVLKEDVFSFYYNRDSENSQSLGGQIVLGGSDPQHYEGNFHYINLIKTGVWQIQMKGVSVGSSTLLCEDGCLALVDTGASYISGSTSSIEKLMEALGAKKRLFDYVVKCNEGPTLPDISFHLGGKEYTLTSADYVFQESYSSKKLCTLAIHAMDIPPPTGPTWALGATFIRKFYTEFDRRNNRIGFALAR
Experiment: In vitro enzymatic activity assay of renin inhibitors (fluorescence, QXL520/HiLyteFluo488 peptide substrate)
Assay type: biochemical
Conditions: recombinant human renin 3 nM, 1 μM substrate, pre-incubated 10 minutes at 37° C., incubation one hour, pH 7.4, 5% DMSO; read-out: IC50 of Exemplified Compounds Against Renin

Compound | IC50 [nM]
COc1cccc(S(=O)(=O)NCCCn2c(C(=O)N3CCNCC3)c(-c3ccccc3)n(-c3ccccc3C)c2=O)c1 [Example 221, 3-Methoxy-N-(3-(2-oxo-4-phenyl-5-(piperazine-1-carbonyl)-3-o-tolyl-2,3-dihydro-1H-imidazol-1-yl)propyl)benzenesulfonamide] | 100 to 500
CC(c1ccccc1)n1c(C(=O)N2CCNCC2)c(-c2ccccc2)n(C2CCCCC2)c1=O (stereo not shown) [Example 69, 1-Cyclohexyl-5-phenyl-3-(1-phenylethyl)-4-(piperazine-1-carbonyl)-1H-imidazol-2(3H)-one] | 100 to 500
Cc1ccccc1-n1c(-c2ccccc2)c(C(=O)N2CCNCC2)n(CCNC(=O)c2ccccc2Cl)c1=O [Example 231, 2-Chloro-N-(2-(2-oxo-4-phenyl-5-(piperazine-1-carbonyl)-3-o-tolyl-2,3-dihydro-1H-imidazol-1-yl)ethyl)benzamide] | > 1000
C[C@@H]1CN(C(=O)c2[nH]c(=O)n(C3CCCCC3)c2-c2ccccc2)CCN1 [Example 37, (R)-1-Cyclohexyl-4-(3-methylpiperazine-1-carbonyl)-5-phenyl-1H-imidazol-2(3H)-one] | > 1000
CC(C)NC(=O)NCCCn1c(C(=O)N2CCNCC2)c(-c2ccccc2)n(-c2cccc(N3CCOCC3)c2)c1=O [Example 61, 1-Isopropyl-3-(3-(3-(3-morpholinophenyl)-2-oxo-4-phenyl-5-(piperazine-1-carbonyl)-2,3-dihydro-1H-imidazol-1-yl)propyl)urea] | > 1000
O=C(c1ccco1)N1CCCC(n2c(-c3ccccc3)c(C(=O)N3CCNCC3)n(Cc3ccccc3)c2=O)C1 (stereo not shown) [Example 97, 1-Benzyl-3-(1-(furan-2-carbonyl)piperidin-3-yl)-4-phenyl-5-(piperazine-1-carbonyl)-1H-imidazol-2(3H)-one] | > 1000
CS(=O)(=O)Nc1ccccc1-n1c(-c2ccccc2)c(C(=O)N2CCNC[C@H]2Cc2ccccc2)[nH]c1=O [Example 118, (R)—N-(2-(4-(2-Benzylpiperazine-1-carbonyl)-2-oxo-5-phenyl-2,3-dihydro-1H-imidazol-1-yl)phenyl)methanesulfonamide] | < 100
Cc1ccccc1-n1c(-c2ccccc2)c(C(=O)N2CCNCC2)n(CCCNC(=O)CC(C)C)c1=O [Example 165, 3-Methyl-N-(3-(2-oxo-4-phenyl-5-(piperazine-1-carbonyl)-3-o-tolyl-2,3-dihydro-1H-imidazol-1-yl)propyl)butanamide] | > 1000
O=C(c1c(-c2ccccc2)n(-c2cccc(N3CCOCC3)c2)c(=O)n1CCCNS(=O)(=O)c1ccc(Cl)cc1)N1CCNCC1 [Example 202, 4-Chloro-N-(3-(3-(3-morpholinophenyl)-2-oxo-4-phenyl-5-(piperazine-1-carbonyl)-2,3-dihydro-1H-imidazol-1-yl)propyl)benzenesulfonamide] | 500 to 1000
COCCCOc1cccc(-n2c(-c3cccc(Cl)c3)c(C(=O)N3CCNCC3)[nH]c2=O)c1 [Example 42, 5-(3-Chlorophenyl)-1-(3-(3-methoxypropoxy)phenyl)-4-(piperazine-1-carbonyl)-1H-imidazol-2(3H)-one] | > 1000
O=C(c1c(-c2ccccc2)n([C@@H]2CCCC[C@H]2O)c(=O)n1Cc1cccc(Oc2ccccc2)c1)N1CCNCC1 [Example 106, 1-((1R,2R)-2-Hydroxycyclohexyl)-3-(3-phenoxybenzyl)-5-phenyl-4-(piperazine-1-carbonyl)-1H-imidazol-2(3H)-one] | 100 to 500
CC(=O)N1CCCC(n2c(-c3ccccc3)c(C(=O)N3CCNC[C@H]3Cc3ccccc3)[nH]c2=O)C1 (stereo partly drawn) [Example 104, 1-(1-Acetylpiperidin-3-yl)-4-((R)-2-benzylpiperazine-1-carbonyl)-5-phenyl-1H-imidazol-2(3H)-one] | 500 to 1000
Cc1ccccc1-n1c(-c2ccccc2)c(C(=O)N2CCNCC2)n(CCCNS(=O)(=O)c2cccc(Cl)c2)c1=O [Example 218, 3-Chloro-N-(3-(2-oxo-4-phenyl-5-(piperazine-1-carbonyl)-3-o-tolyl-2,3-dihydro-1H-imidazol-1-yl)propyl)benzenesulfonamide] | 100 to 500
CCCCN1CCCc2ccc(-n3c(-c4ccccc4)c(C(=O)N4CCNC[C@H]4Cc4ccccc4)[nH]c3=O)cc21 [Example 131] | < 100
Cc1ccccc1-n1c(-c2ccccc2)c(C(=O)N2CCNCC2)n(CCCNC(=O)c2ccccc2)c1=O [Example 156, N-(3-(2-oxo-4-Phenyl-5-(piperazine-1-carbonyl)-3-o-tolyl-2,3-dihydro-1H-imidazol-1-yl)propyl)benzamide] | > 1000
Cc1ccccc1-n1c(-c2ccccc2)c(C(=O)N2CCNCC2)n(Cc2cccc(Oc3ccccc3)c2)c1=O [Example 142, 1-(3-Phenoxybenzyl)-4-phenyl-5-(piperazine-1-carbonyl)-3-o-tolyl-1H-imidazol-2(3H)-one] | 100 to 500

Compound | IC50 [nM]
COCCCOc1cccc(-n2c(-c3ccccc3)c(C(=O)N3CCNCC3)n(CCCNC(=O)c3ccccc3)c2=O)c1 [Example 179, N-(3-(3-(3-(3-Methoxypropoxy)phenyl)-2-oxo-4-phenyl-5-(piperazine-1-carbonyl)-2,3-dihydro-1H-imidazol-1-yl)propyl)benzamide] | 500 to 1000
Cc1ccccc1-n1c(-c2ccccc2)c(C(=O)N2CCNCC2)n(CCNC(=O)CC(C)C)c1=O [Example 238, 3-Methyl-N-(2-(2-oxo-4-phenyl-5-(piperazine-1-carbonyl)-3-o-tolyl-2,3-dihydro-1H-imidazol-1-yl)ethyl)butanamide] | > 1000
C=CCn1c(C(=O)N2CCNCC2)c(-c2ccccc2)n(-c2ccccc2OC)c1=O [Example 145, 1-Allyl-3-(2-methoxyphenyl)-4-phenyl-5-(piperazine-1-carbonyl)-1H-imidazol-2(3H)-one] | > 1000
NC(=O)Cn1c(C(=O)N2CCNC[C@H]2Cc2ccccc2)c(-c2ccccc2)n(C2CCCCC2)c1=O [Example 67, (R)-2-(5-(2-Benzylpiperazine-1-carbonyl)-3-cyclohexyl-2-oxo-4-phenyl-2,3-dihydro-1H-imidazol-1-yl)acetamide] | 100 to 500
O=C(c1c(-c2ccccc2)n(-c2cccc(N3CCOCC3)c2)c(=O)n1Cc1ccc(F)c(F)c1)N1CCNCC1 [Example 190, 1-(3,4-Difluorobenzyl)-3-(3-morpholinophenyl)-4-phenyl-5-(piperazine-1-carbonyl)-1H-imidazol-2(3H)-one] | 500 to 1000
Cc1ccccc1-n1c(-c2ccccc2)c(C(=O)N2CCNCC2)n(CCNS(=O)(=O)c2ccc(Cl)cc2)c1=O [Example 207, 4-Chloro-N-(2-(2-oxo-4-phenyl-5-(piperazine-1-carbonyl)-3-o-tolyl-2,3-dihydro-1H-imidazol-1-yl)ethyl)benzenesulfonamide] | > 1000
Cc1ccccc1-n1c(-c2ccccc2)c(C(=O)N2CCNCC2)n(CCCNC(=O)C(C)C)c1=O [Example 246, N-(3-(2-oxo-4-phenyl-5-(piperazine-1-carbonyl)-3-o-tolyl-2,3-dihydro-1H-imidazol-1-yl)propyl)isobutyramide] | > 1000
CC1CN(C(=O)c2[nH]c(=O)n(C3CCCCC3)c2-c2ccccc2)CCN1 (stereo not shown) [Example 38, 1-Cyclohexyl-4-(3-methylpiperazine-1-carbonyl)-5-phenyl-1H-imidazol-2(3H)-one] | > 1000
CCCCS(=O)(=O)Nc1ccccc1-n1c(-c2ccccc2)c(C(=O)N2CCNC[C@H]2Cc2ccccc2)[nH]c1=O [Example 128, (R)—N-(2-(4-(2-Benzylpiperazine-1-carbonyl)-2-oxo-5-phenyl-2,3-dihydro-1H-imidazol-1-yl)phenyl)butane-1-sulfonamide] | < 100
O=C(NCCCn1c(C(=O)N2CCNCC2)c(-c2ccccc2)n(-c2cccc(N3CCOCC3)c2)c1=O)Nc1ccccc1 [Example 200, 1-(3-(3-(3-Morpholinophenyl)-2-oxo-4-phenyl-5-(piperazine-1-carbonyl)-2,3-dihydro-1H-imidazol-1-yl)propyl)-3-phenylurea] | 500 to 1000
COCCCOc1cccc(-n2c(-c3ccccc3)c(C(=O)N3CCNCC3)n(CCCNC(=O)CC(C)C)c2=O)c1 [Example 181, N-(3-(3-(3-(3-Methoxypropoxy)phenyl)-2-oxo-4-phenyl-5-(piperazine-1-carbonyl)-2,3-dihydro-1H-imidazol-1-yl)propyl)-3-methylbutanamide] | > 1000
O=C(c1c(-c2ccccc2)n(C2CCCN(S(=O)(=O)c3ccccc3)C2)c(=O)n1Cc1cccc(Oc2ccccc2)c1)N1CCNCC1 (stereo not shown) [Example 102, 1-(3-Phenoxybenzyl)-4-phenyl-3-(1-(phenylsulfonyl)piperidin-3-yl)-5-(piperazine-1-carbonyl)-1H-imidazol-2(3H)-one] | 100 to 500
N#Cc1cccc(Cn2c(C(=O)N3CCNCC3)c(-c3ccccc3)n(-c3ccccc3)c2=O)c1 [Example 79, 3-((2-oxo-3,4-diphenyl-5-(piperazine-1-carbonyl)-2,3-dihydro-1H-imidazol-1-yl)methyl)benzonitrile] | 500 to 1000
COCCOc1ccccc1-n1c(-c2ccccc2)c(C(=O)N2CCNCC2)[nH]c1=O [Example 32, 1-(2-(2-Methoxyethoxy)phenyl)-5-phenyl-4-(piperazine-1-carbonyl)-1H-imidazol-2(3H)-one] | > 1000
Cc1ccccc1-n1c(-c2ccccc2)c(C(=O)N2CCNCC2)n(CCNS(=O)(=O)c2cccc(Cl)c2)c1=O [Example 205, 3-Chloro-N-(2-(2-oxo-4-phenyl-5-(piperazine-1-carbonyl)-3-o-tolyl-2,3-dihydro-1H-imidazol-1-yl)ethyl)benzenesulfonamide] | > 1000
